Results taken from ChEMBL document CHEMBL3804824, “5-((3-Amidobenzyl)oxy)nicotinamides as Sirtuin 2 Inhibitors” (J Med Chem, 2016).

Assays:
in vitro [1] = conditions: dog, MDCK
in vitro [2] = conditions: dog, MDCK; remark: listed apart in the source
in vitro [3] = conditions: dog, MDCK; remark: listed apart in the source
[4] = molecular target: NAD-dependent protein deacylase sirtuin-5, mitochondrial (Homo sapiens, UniProt Q9NXA8)
in vitro [5] = conditions: human, microsomes
Description: Half life in human liver microsomes at 1 uM by LC-MS/MS analysis in presence of NADPH

in vitro [6] = conditions: mouse, plasma
Description: Metabolic stability in mouse plasma assessed as parent compound remaining incubated for 6 hrs by LC-MS/MS analysis

in vitro [7] = conditions: human, plasma
Description: Metabolic stability in human plasma assessed as parent compound remaining incubated for 24 hrs by LC-MS/MS analysis

in vitro [8] = conditions: mouse, plasma; remark: listed apart in the source
Description: Metabolic stability in mouse plasma assessed as parent compound remaining incubated for 24 hrs by LC-MS/MS analysis

in vitro [9] = conditions: human, plasma; remark: listed apart in the source
Description: Metabolic stability in human plasma assessed as parent compound remaining incubated for 6 hrs by LC-MS/MS analysis

in vitro [10] = conditions: mouse, microsomes
Description: Half life in mouse liver microsomes at 1 uM by LC-MS/MS analysis in presence of NADPH

[11] = molecular target: T1, NAD-dependent protein deacetylase sirtuin-3, mitochondrial (Homo sapiens, UniProt Q9NTG7)
T1 sequence (Q9NTG7 whole entry): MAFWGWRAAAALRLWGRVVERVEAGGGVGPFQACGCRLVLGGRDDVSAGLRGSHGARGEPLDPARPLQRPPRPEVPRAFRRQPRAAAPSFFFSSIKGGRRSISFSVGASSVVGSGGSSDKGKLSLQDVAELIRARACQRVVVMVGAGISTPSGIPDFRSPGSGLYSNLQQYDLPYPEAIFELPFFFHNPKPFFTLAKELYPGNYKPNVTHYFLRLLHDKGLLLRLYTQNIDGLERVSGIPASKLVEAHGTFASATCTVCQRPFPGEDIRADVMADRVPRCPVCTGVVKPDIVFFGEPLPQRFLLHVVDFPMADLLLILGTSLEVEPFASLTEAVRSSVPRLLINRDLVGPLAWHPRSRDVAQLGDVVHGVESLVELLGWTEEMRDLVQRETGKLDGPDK

NAD-dependent protein deacylase sirtuin-5, mitochondrial, sequence (Q9NXA8 whole entry): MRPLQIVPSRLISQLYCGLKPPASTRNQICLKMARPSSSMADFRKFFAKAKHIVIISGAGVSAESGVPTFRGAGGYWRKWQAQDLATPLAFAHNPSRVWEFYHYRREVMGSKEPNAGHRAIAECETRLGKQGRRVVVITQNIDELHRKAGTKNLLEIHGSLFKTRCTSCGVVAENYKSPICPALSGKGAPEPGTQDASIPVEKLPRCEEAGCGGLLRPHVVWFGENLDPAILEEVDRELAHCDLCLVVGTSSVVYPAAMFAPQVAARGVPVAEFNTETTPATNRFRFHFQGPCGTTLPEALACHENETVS

recovery at 3 h, 25 µM (in vitro [1]) [%]	Papp A→B at 3 h, 25 µM (in vitro [2]) [×10⁻⁶ cm/s]	Papp B→A at 3 h, 25 µM (in vitro [3]) [×10⁻⁶ cm/s]	IC50 [4] [µM]	half-life at 1 µM (in vitro [5]) [h]	remaining at 6 h (in vitro [6]) [%]	remaining at 24 h (in vitro [7]) [%]	remaining at 24 h (in vitro [8]) [%]	remaining at 6 h (in vitro [9]) [%]	half-life at 1 µM (in vitro [10]) [h]	IC50 [11] [µM]	SMILES
> 90	3.8	4.4									NC(=O)c1cncc(Oc2cccc3c(NC(=O)c4ccccc4)cccc23)c1
> 90	23	25	> 200	5.5	78	97	25	99	0.85		NC(=O)c1cncc(OCc2cccc(NC(=O)c3cccnc3)c2)c1
										> 200	NC(=O)c1cncc(OCc2cccc(NC(=O)C34CC5CC(CC(C5)C3)C4)c2)c1
